Data on 13 compounds can be found in patent US20250296940A1, “ANNULATED 2-AMINO-3-CYANO THIOPHENES AND DERIVATIVES FOR THE TREATMENT OF CANCER” (Boehringer Ingelheim Int'l GmbH Corp., priority 2021, published 2025).

Series [1] relates to pERK (Thr202/Tyr204) in NCI-H358 cells (KRAS G12C mutation). The series can be described thus: ERK phosphorylation assay (assay 1, NCI-H358). Type of series: cell-based. Particulars: Homo sapiens; NCI-H358 (assay 1), 1 h compound incubation. An excerpt: Low IC50 values in this assay setting are indicative of high potency of the compounds according to the invention. […]
• RPMI-1640 Medium (ATCC® 30-2001™) • Fetal Bovine Serum (FBS) from HyClone (SH30071.03) • Non-essential amino acids from Thermo Fischer Scientific (11140035) • Pyruvate from Thermo Fischer Scientific (11360039) • Glutamax from Thermo Fischer Scientific (35050061) • 384 plates from Greiner Bio-One (781182) • Proxiplate™ 384 from PerkinElmer Inc. (6008280) • AlphaLISA SureFire Ultra p-ERK1/2 (Thr202/Tyr204) Assay Kit (ALSU-PERK-A500) EGF from Sigma (E4127) • Acceptor Mix: Protein A Acceptor Beads from PerkinElmer (6760137M) • Donor Mix: AlphaScreen Streptavidin-coated Donor Beads from PerkinElmer (6760002) • Trametinib • Staurosporine from Sigma Aldrich (S6942)
Cells are seeded at 40,000 cells per well in/60 μL of RPMI with 10% FBS, non-essential amino acids, pyruvate and glutamax in Greiner TC 384 plates. The cells are incubated for 1 h at room temperature and then incubated overnight in an incubator at 37° C. and 5% CO2 in a humidified atmosphere. 60 nL compound solution (10 mM DMSO stock solution) is then added using a Labcyte Echo 550 device. After a 1 h incubation in the aforementioned incubator the medium is removed after centrifugation and the cells lysed by addition of 20 μL of 1.6-fold lysis buffer from the AlphaLISA SureFire Ultra pERK1/2 (Thr202/Tyr204) Assay Kit with added protease inhibitors, 100 nM trametinib+100 nM staurosporine. After 20 minutes of incubation at room temperature with shaking, 6 μL of each lysate sample is transferred to a 384-well Proxiplate and analyzed for pERK (Thr202/Tyr204) with the AlphaLISA SureFire Ultra pERK1/2 (Thr202/Tyr204) Assay Kit. 3 μL Acceptor Mix and 3 μL Donor Mix are added under subdued light and incubated for 2 h at room temperature in the dark, before the signal is measured on a PerkinElmer Envision HTS Multilabel Reader. The raw data were imported into and analyzed with the Boehringer Ingelheim proprietary software MegaLab (curve fitting based on the program PRISM, GraphPad Inc.).
IC50 values of representative compounds (I) according to the invention measured with this assay are presented in table 22 (IC50s from assay 2 are marked with *, all others are from assay 1).

Series [2] relates to NCI-H358 cells (NSCLC, G12C). Briefly: NCI-H358 CTG proliferation assay (120 h). Format: cell-based. The note with it: Homo sapiens, NCI-H358, CellTiter-Glo. On the procedure: NCI-H358 cells (ATCC No. CRL-5807) are dispensed into white bottom opaque 96 well plates (Perkin Elmer cat no. 5680) at a density of 2000 cells per well in 100 μL RPMI-1640 ATCC-Formulation (Gibco #A10491)+10% FCS (fetal calf serum). […] Compounds (10 mM stock in DMSO) are added at logarithmic dose series using the HP Digital Dispenser D300 (Tecan), normalizing for added DMSO and including DMSO controls. For the TO time point measurement, untreated cells are analyzed at the time of compound addition. Plates are incubated for 120 h, and cell viability is measured using CellTiter-Glo luminescent cell viability reagent (Promega product code G7570). Viability (stated as percent of control) is defined as relative luminescence units RLU of each well divided by the RLU of cells in DMSO controls. IC50 values are determined from viability measurements by non-linear regression using a four parameter model.
IC50 values of representative compounds according to the invention measured with these assays in the indicated cell lines: […]

Series [3] can be described thus: Metabolic (microsomal) stability assay. Type of series: in vitro ADME. The note with it: human liver microsomes 1 mg/mL, 1 μM compound, 37° C.; predicted clearance as percent of liver blood flow. The method, then:
The metabolic degradation of the test compound is assayed at 37° C. with pooled liver microsomes (mouse (MLM), rat (RLM) or human (HLM)). The final incubation volume of 48 μL per time point contains TRIS buffer (pH 7.5; 0.1 M), magnesium chloride (6.5 mM), microsomal protein (0.5 mg/mL for mouse/rat, 1 mg/mL for human specimens) and the test compound at a final concentration of 1 μM. Following a short preincubation period at 37° C., the reactions are initiated by addition of 12 μL beta-nicotinamide adenine dinucleotide phosphate, reduced form (NADPH, 10 mM) and terminated by transferring an aliquot into solvent after different time points (0, 5, 15, 30, 60 min). Additionally, the NADPH-independent degradation is monitored in incubations without NADPH, terminated at the last time point by addition of acetonitrile. The quenched incubations are pelleted by centrifugation (4,000 rpm, 15 min). An aliquot of the supernatant is assayed by LC-MS/MS to quantify the concentration of parent compound in the individual samples.
In vitro intrinsic clearance (CLint, in vitro) is calculated from the time course of the disappearance of the test drug during the microsomal incubation. Each plot is fitted to the first-order elimination rate constant as C(t)=C0*exp(−ke*t), where C(t) and C0 are the concentration of unchanged test drug at incubation time t and that at preincubation and ke is the disappearance rate constant of the unchanged drug. Subsequently, CLint, in vitro (μL min^−1·amount protein) values are converted to predicted CLint,in vivo (mL min^−1·kg^−1) from incubation parameters according to the equation CLint, in vivo=CLint, in vitro×(incubation volume (ml)/amount protein (mg))×(amount protein (mg)/g liver tissue)×(liver weight/body wt.).
For better across species comparison the predicted clearance is expressed as percent of the liver blood flow [% QH](mL min^−1 kg^−1) in the individual species. In general, high stability (corresponding to low % QH) of the compounds across species is desired.
Metabolic stability data obtained with the disclosed assay in HLM for a selection of compounds (I) according to the invention: […]

Series [4] is described as follows: Solubility measurement (DMSO solution precipitation method). Type of series: physicochemical. Particulars: aqueous buffer, kinetic from dmso stock, ambient temperature. On the procedure: The DMSO solution is diluted with an aqueous medium (McIlvaine buffer with pH=4.5 or 6.8) to a final concentration of 250 μM. After 24 h of shaking at ambient temperature a potentially formed precipitate is removed by filtration. The concentration of the test compound in the filtrate is determined by LC-UV methods by calibrating the signal to the signal of a reference solution with complete dissolution of the test compound in acetonitrile/water (1:1) with known concentration.
Data obtained with the disclosed assay for a selection of compounds (I) according to the invention: […]

Where [5] appears, read: McIlvaine buffer pH 4.5, 24 h, read-out: Solubility pH 4.5.
[6] abbreviates: McIlvaine buffer pH 6.8, 24 h, read-out: Solubility pH 6.8.

What is called IC50 is the concentration that gives 50% inhibition. The solubility is the concentration that dissolves in the medium under given conditions.

Each structure is given as a SMILES string. Converted amounts (≈) assume the structure as drawn. Where two headings read alike, the source gives them in different places.

Consider `C=C(F)C(=O)N1[C@@H](C)CN(c2cc(O[C@@H](C)[C@@H]3CCCN3C)nc(-c3onc4c3CCC[C@@]43CCCc4sc(N)c(C#N)c43)n2)C[C@@H]1C` [Ia-1], for which the IC50 was found to be 8.4 nM in series [1] and 1 nM in series [2]. Also, the “HLM QH” value in series [3] is <24%. Besides, the solubility at 24 h in series [4] (setting [5]) came to 125 µg/mL (≈ 185 µM); in series [4] (setting [6]) it was 57 µg/mL (≈ 84.5 µM).

As to `C=CC(=O)N1[C@@H](C)CN(c2cc(O[C@@H](C)[C@@H]3CCCN3C)nc(-c3onc4c3CCC[C@@]43CCCc4sc(N)c(C#N)c43)n2)C[C@@H]1C` [Ia-2], the values for the IC50 in series [1] and in series [2] were 1.1 nM and < 1 nM, respectively. Besides, the “HLM QH” value in series [3] is reported as <24%. Besides, the results for the solubility at 24 h in series [4] (setting [5]) and in series [4] (setting [6]) were > 156 µg/mL and 126 µg/mL (≈ 192 µM), respectively.

Take `C=C(F)C(=O)N1[C@@H](C)CN(c2cc(-c3onc4c3CCC[C@@]43CCCc4sc(N)c(C#N)c43)nc(O[C@@H](C)[C@@H]3CCCN3C)n2)C[C@@H]1C` [Ia-3]: the IC50 in series [1] amounted to 16.4 nM; in series [2], 7 nM. Moreover, in series [3], the “HLM QH” value was 41%. In addition, the values for the solubility at 24 h in series [4] (setting [5]) and in series [4] (setting [6]) were 116 µg/mL (≈ 172 µM) and < 1 µg/mL, respectively.

`C=CC(=O)N1[C@@H](C)CN(c2cc(-c3onc4c3CCC[C@@]43CCCc4sc(N)c(C#N)c43)nc(O[C@@H](C)[C@@H]3CCCN3C)n2)C[C@@H]1C` [Ia-4]: in series [2], the IC50 is < 1 nM. In addition, the “HLM QH” value in series [3] is 28%. Also, the solubility at 24 h was > 163 µg/mL in series [4] (setting [5]) and > 160 µg/mL in series [4] (setting [6]).

In the case of `C[C@H](Oc1cc(N2C[C@H](C)N(C(=O)/C=C/CF)[C@@H](C)C2)nc(-c2noc3c2CCC[C@@]32CCCc3sc(N)c(C#N)c32)n1)[C@@H]1CCCN1C` [Ib-1], the IC50 amounted to 4.2 nM in series [1] and 1 nM in series [2]. Also, the “HLM QH” value in series [3] is recorded as <24%.

On to `C=CC(=O)N1CCN(c2cc(O[C@@H](C)[C@@H]3CCCN3C)nc(-c3noc4c3CCC[C@@]43CCCc4sc(N)c(C#N)c43)n2)CC12CC2` [Ib-2], for which the IC50 in series [1] and in series [2] was 1 nM in each case. For the same compound, the “HLM QH” value in series [3] is reported as <24%. The solubility at 24 h was 111 µg/mL (≈ 170 µM) in series [4] (setting [5]) and 77 µg/mL (≈ 118 µM) in series [4] (setting [6]).

Consider `C=CC(=O)N1[C@@H](C)CN(c2cc(O[C@@H](C)[C@@H]3CCCN3C)nc(-c3noc4c3CCC[C@@]43CCCc4sc(N)c(C#N)c43)n2)C[C@@H]1C` [Ib-3], for which the IC50 in series [1] is 1.3 nM; in series [2], < 1 nM. In series [3], the “HLM QH” value is 34%. The solubility at 24 h in series [4] (setting [5]) amounted to 130 µg/mL (≈ 198 µM); in series [4] (setting [6]) it was 121 µg/mL (≈ 184 µM).

On to `C=CC(=O)N1[C@@H](C)CN(c2cc(-c3noc4c3CCC[C@@]43CCCc4sc(N)c(C#N)c43)nc(O[C@@H](C)[C@@H]3CCCN3C)n2)C[C@@H]1C` [Ib-4], for which the IC50 in series [1] is 0.4 nM; in series [2] it was < 1 nM. Also, in series [3], the “HLM QH” value is 45%. Besides, the solubility at 24 h in series [4] (setting [5]) was > 140 µg/mL; in series [4] (setting [6]), 129 µg/mL (≈ 196 µM).

Turning to `C=C(F)C(=O)N1[C@@H](C)CN(c2cc(O[C@@H](C)[C@@H]3CCCN3C)nc(-c3noc4c3CCC[C@@]43CCCc4sc(N)c(C#N)c43)n2)C[C@@H]1C` [Ib-5], the IC50 in series [1] came out at 7.7 nM; in series [2] it was 1 nM. In addition, in series [3], the “HLM QH” value was <24%. Moreover, the solubility at 24 h in series [4] (setting [5]) came out at 116 µg/mL (≈ 172 µM); in series [4] (setting [6]), 40 µg/mL (≈ 59.3 µM).

For the compound `C=C(F)C(=O)N1[C@@H](C)CN(c2cc(-c3noc4c3CCC[C@@]43CCCc4sc(N)c(C#N)c43)nc(O[C@@H](C)[C@@H]3CCCN3C)n2)C[C@@H]1C` [Ib-6], the IC50 turned out to be 5.3 nM in series [1] and 2 nM in series [2]. Further, the “HLM QH” value in series [3] is recorded as 72%. For the same compound, the solubility at 24 h was found to be 113 µg/mL (≈ 167 µM) in series [4] (setting [5]) and 50 µg/mL (≈ 74.1 µM) in series [4] (setting [6]).

Take `C[C@H](Oc1nc(-c2noc3c2CCC[C@@]32CCCc3sc(N)c(C#N)c32)cc(N2C[C@H](C)N(C(=O)/C=C/CF)[C@@H](C)C2)n1)[C@@H]1CCCN1C` [Ib-7]: the IC50 in series [1] was 4.7 nM; in series [2], 4 nM. For the same compound, in series [3], the “HLM QH” value is reported as 64%. Moreover, the solubility at 24 h was > 139 µg/mL in series [4] (setting [5]) and 108 µg/mL (≈ 157 µM) in series [4] (setting [6]).

For `C[C@H](Oc1nc(-c2noc3c2CCC[C@@]32CCCc3sc(N)c(C#N)c32)cc(N2C[C@H](C)N(C(=O)/C=C/c3cccnc3)[C@@H](C)C2)n1)[C@@H]1CCCN1C` [Ib-8], the IC50 worked out at 26.9 nM in series [1] and 85 nM in series [2]. For the same compound, the “HLM QH” value in series [3] is reported as 49%. The solubility at 24 h in series [4] (setting [5]) was determined as 102 µg/mL (≈ 139 µM); in series [4] (setting [6]) it was 13 µg/mL (≈ 17.7 µM).

As for `COC/C=C/C(=O)N1[C@@H](C)CN(c2cc(-c3noc4c3CCC[C@@]43CCCc4sc(N)c(C#N)c43)nc(O[C@@H](C)[C@@H]3CCCN3C)n2)C[C@@H]1C` [Ib-9], the IC50 is 373 nM in series [1] and 90 nM in series [2]. Further, the “HLM QH” value in series [3] is recorded as 76%. Also, the solubility at 24 h is 83 µg/mL (≈ 118 µM) in series [4] (setting [5]) and 114 µg/mL (≈ 163 µM) in series [4] (setting [6]).
